Where two headings read alike, the source gives them in different places.
Target: T1, full-length SARM1 (FL-SARM1) (Homo sapiens, UniProt Q6SZW1)
T1 sequence (Q6SZW1 28-724): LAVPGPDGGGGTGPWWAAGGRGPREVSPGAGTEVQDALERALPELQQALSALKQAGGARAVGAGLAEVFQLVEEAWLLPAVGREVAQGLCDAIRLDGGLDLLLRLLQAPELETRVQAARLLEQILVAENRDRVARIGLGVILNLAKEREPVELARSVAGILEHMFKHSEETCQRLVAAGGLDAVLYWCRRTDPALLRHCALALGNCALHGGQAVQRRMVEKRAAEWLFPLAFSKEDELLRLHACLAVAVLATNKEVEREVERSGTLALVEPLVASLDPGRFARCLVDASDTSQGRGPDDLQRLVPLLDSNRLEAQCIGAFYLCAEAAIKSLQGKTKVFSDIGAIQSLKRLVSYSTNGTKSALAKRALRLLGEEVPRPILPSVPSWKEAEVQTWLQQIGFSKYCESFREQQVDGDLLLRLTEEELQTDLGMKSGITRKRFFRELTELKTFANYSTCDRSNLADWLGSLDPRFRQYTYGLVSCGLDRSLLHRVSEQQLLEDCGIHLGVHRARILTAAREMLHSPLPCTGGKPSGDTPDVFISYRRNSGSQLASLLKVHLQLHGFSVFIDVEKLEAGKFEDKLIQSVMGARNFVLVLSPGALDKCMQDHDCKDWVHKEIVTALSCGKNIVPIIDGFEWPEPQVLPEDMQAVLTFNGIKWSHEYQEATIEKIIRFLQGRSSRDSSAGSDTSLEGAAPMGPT
Assay: FL-SARM1 cellular lysate assay (NAD/NADH-Glo detection of remaining NAD+, NMN-activated)

[1] = Activity (IC50 class), 11 point curve
[2] = Activity (μM) (IC50), 11 point curve
[3] = read-out: Activity (IC50 class), 11 point curve

Protocol: Preparation of full-length SARM1 (FL-SARM1) lysate: HEK293T cells (ATCC: CRL-3216) were grown on 150 mm TC-treated dishes to 80-90% confluency in complete DMEM (DMEM (Thermo Fisher: 11965175) supplemented with 10% HI—FBS (VWR: 10802-772), 1× Pen/Strep (Thermo Fisher: 15140122), 1×NEAA (Thermo Fisher: 1140050), 1× glutamax (Thermo Fisher: 35050061), and 1 mM sodium pyruvate (Thermo Fisher: 11360070)) at 37° C. and 5% CO2. One hour prior to transfection, the media was replaced with fresh, 37° C. complete DMEM (20 mL per one 150 mm dish) supplemented with additional 10 mM glucose (Alfa Aesar AAJ60067EQE). Per one 150 mm dish, 30 μg FL-SARM1 (SEQ. ID. 1; cloned in-house) plasmid was dissolved in 1 mL DMEM at ambient temperature and were mixed by inverting the tube 8-10 times. 90 μL of GenJet™ in vitro DNA transfection reagent (Ver2) was dissolved in 1 mL DMEM at ambient temperature and were mixed by inverting the tube 8-10 times. The plasmid and transfection agent solutions were combined, mixed by 8-10 inversions and incubated for 10 minutes at ambient temperature. 2 mL of this transfection mixture was added to each dish containing HEK293T cells as prepared above followed by a gentle mixing of 4-5 horizontal rotations. The dishes were incubated at 37° C. and 5% CO2 for 24 h. The dishes were removed from the incubator, the medium was aspirated and the cells were scraped off using cell scrapers in ice-cold 1×PBS (5 mL/dish, Thermo Fisher Scientific 10010023). The collected cells were centrifuged at 300 g for 5 minutes at 4° C. The supernatant was aspirated and the pellet was frozen at −80° C. until needed. The cell pellet from 30 dishes was dissolved in 30 mL 1×PBS supplemented with 4 tablets of Complete, Mini EDTA-free protease inhibitor cocktail at 4° C. This mixture was sonicated on ice for 10 minutes at 50% amplitude with a 1 second on/1 second off interval using a Model 120 sonicator (Thermo Fisher Scientific, FB120110). The lysate was centrifuged at 16000 g for 10 minutes at 4° C.
To a white 384-well Proxiplate (PerkinElmer, PE-6008280) was added 50 nL/well of a DMSO solution containing test compounds followed by 7.5 μL/well of a 0.067 mg/mL solution of SARMi cellular lysate in reaction buffer (DPBS containing CHAPSO (0.1%) and fatty acid free BSA (0.032%)). The plate was centrifuged for 1 minute at 1000 RPM and then placed in an incubator at 23° C. for 15 minutes. To the wells were added 2.5 μL/well of a solution containing 40 M NAD^+ and 4 mM nicotinamide mononucleotide (NMN) in reaction buffer. The plate was centrifuged for 1 min at 1000 RPM, the plate was sealed and placed in an incubator at 23° C. for 3.5 hours before adding 3.5 μL/well of NAD/NADH-Glo™ solution (preparation as described by Promega using the extended detection protocol). The plate was centrifuged for 1 minute at 1000 RPM and then incubated at 23° C. for 20 minutes. 1 μL/well of a 3.625 mM solution of menadione in DMSO was added and the plate was centrifuged for 1 minute at 1000 RPM. Relative light units (RLU) were recorded using an Envision plate reader at a height of 6.5 mm.
IC50 values were calculated from an 11 point curve using ½ log dilutions using a four-parameter logistic regression curve fit.

| Compound | IC50 [1] | IC50 [2] | IC50 [3] |
| --- | --- | --- | --- |
| Cc1nnc(C2CCCN2C(=O)Nc2ccc(C)c(-c3ccccn3)c2)o1 (racemic) [Example 87, 2-(5-methyl-1,3,4-oxadiazol-2-yl)-N-(4-methyl-3-pyridin-2-ylphenyl)pyrrolidine-1-carboxamide] | > 10 µM | 17 µM | – |
| Cc1ccc(NC(=O)N2CC3CC2c2ccccc2O3)cc1-c1ccccn1 (stereo not shown) [Example 24, N-(4-methyl-3-(pyridin-2-yl)phenyl)-2,3-dihydro-2,5-methanobenzo[f][1,4]oxazepine-4(5H)-carboxamide] | 1 to 10 µM | 1.4 µM | – |
| Cc1ccc(NC(=O)N2C3CCCC2C3)cc1-c1cc(C(F)(F)F)cnn1 [Example 66, N-(4-methyl-3-(5-(trifluoromethyl)pyridazine-3-yl)phenyl)-6-azabicyclo[3.1.1]heptane-6-carboxamide] | – | 0.5 µM | 0.0001 to 1 µM |
| Cc1ccc(NC(=O)CC2CCC2)cc1-c1cnccn1 [Example 166, 2-cyclobutyl-N-(4-methyl-3-pyrazin-2-ylphenyl)acetamide] | > 10 µM | 19 µM | – |
| Cc1cc(C)c(-c2ccccn2)cc1NC(=O)N1C2CCCC1C2 [Example 76, N-(2,4-dimethyl-5-(pyridin-2-yl)phenyl)-6-azabicyclo[3.1.1]heptane-6-carboxamide] | 1 to 10 µM | 6.8 µM | – |
| Cc1ccc(NC(=O)C2CC3(CC3)C2)cc1-c1ccccn1 [Example 119, N-(4-methyl-3-pyridin-2-ylphenyl)spiro[2.3]hexane-5-carboxamide] | 1 to 10 µM | 1.9 µM | – |
| Cc1ccc(NC(=O)CN2C(=O)COCc3ccccc32)cc1-c1ccccn1 [Example 144, N-(4-methyl-3-pyridin-2-ylphenyl)-2-(2-oxo-5H-4,1-benzoxazepin-1-yl)acetamide] | 1 to 10 µM | 9.7 µM | – |
| Cc1ccc(NC(=O)N2C3CC2CN(CC(F)F)C3)cc1-c1ccccn1 [Example 5, 3-(2,2-difluoroethyl)-N-(4-methyl-3-(pyridin-2-yl)phenyl)-3,6-diazabicyclo[3.1.1]heptane-6-carboxamide] | – | 0.8 µM | 0.0001 to 1 µM |
| CCO[C@H]1CC2C[C@H](C1)N2C(=O)Nc1ccc(C)c(-c2ccccn2)c1 [Example 79, trans-3-ethoxy-N-(4-methyl-3-(pyridin-2-yl)phenyl)-6-azabicyclo[3.1.1]heptane-6-carboxamide] | 1 to 10 µM | 2.8 µM | – |
| O=C(Nc1ccc(C(F)F)c(-c2ccccn2)c1)[C@@H]1CC1(F)F [Example 126, (1S)-N-[4-(difluoromethyl)-3-pyridin-2-ylphenyl]-2,2-difluorocyclopropane-1-carboxamide] | 1 to 10 µM | 2.5 µM | – |
| Cc1ccc(NC(=O)C2CCC2(F)F)cc1-c1ccccn1 (racemic) [Example 111, 2,2-difluoro-N-(4-methyl-3-pyridin-2-ylphenyl)cyclobutane-1-carboxamide] | 1 to 10 µM | 2.8 µM | – |
| Cc1ccc(NC(=O)N2C3CCCC2C3)cc1-c1ncccc1C1CC1 [Example 32, N-(3-(3-cyclopropylpyridin-2-yl)-4-methylphenyl)-6-azabicyclo[3.1.1]heptane-6-carboxamide] | 1 to 10 µM | 6.1 µM | – |
| Cc1ccc(NC(=O)[C@H]2CC[C@@H](C)CN2c2ncccn2)cc1-c1ncccn1 (single isomer, unassigned) [Example 206, cis-5-methyl-N-(4-methyl-3-(pyrimidin-2-yl)phenyl)-1-(pyrimidin-2-yl)piperidine-2-carboxamide] | – | 0.7 µM | 0.0001 to 1 µM |
| COCC12CC(C)CC(C1)N2C(=O)Nc1cc(-c2ncccn2)c(C)cc1F (single isomer, unassigned) [Example 200, trans-N-(2-fluoro-4-methyl-5-pyrimidin-2-ylphenyl)-1-(methoxymethyl)-3-methyl-6-azabicyclo[3.1.1]heptane-6-carboxamide] | – | 0.1 µM | 0.0001 to 1 µM |
| Cc1ccc(NC(=O)N2C3CCCC2C3)cc1-c1nccc(C(F)(F)F)n1 [Example 68, N-(4-methyl-3-(4-(trifluoromethyl)pyrimidin-2-yl)phenyl)-6-azabicyclo[3.1.1]heptane-6-carboxamide] | 1 to 10 µM | 4.7 µM | – |
| Cc1ccc(NC(=O)[C@H]2C[C@@H](C(F)(F)F)CN2c2ncccn2)cc1-c1cccnn1 [Example 294, (2R,4R)-N-(4-methyl-3-pyridazin-3-ylphenyl)-1-pyrimidin-2-yl-4-(trifluoromethyl) pyrrolidine-2-carboxamide] | 1 to 10 µM | 9.4 µM | – |

| Compound | IC50 [1] | IC50 [2] | IC50 [3] |
| --- | --- | --- | --- |
| Cc1ccc(NC(=O)C2CCC[C@@H](C)N2c2ccccn2)cc1-c1ncc(F)cn1 (mixture of isomers) [Example 258, cis-N-(3-(5-fluoropyrimidin-2-yl)-4-methylphenyl)-6-methyl-1-(pyridin-2-yl)piperidine-2-carboxamide] | 1 to 10 µM | 2.4 µM | – |
| Cc1ccc(NC(=O)[C@H]2C[C@@H]3[C@H](C2)C3(F)F)cc1-c1cccnn1 [Example 177, cis-6,6-difluoro-N-(4-methyl-3-(pyridazin-3-yl)phenyl)bicyclo[3.1.0]hexane-3-carboxamide] | > 10 µM | 23 µM | – |
| Cc1ccc(NC(=O)N2C3CCCC2C3)cc1-c1ncccn1 [Example 52, N-(4-methyl-3-(pyrimidin-2-yl)phenyl)-6-azabicyclo[3.1.1]heptane-6-carboxamide] | – | 0.5 µM | 0.0001 to 1 µM |
| O=C(Nc1ccc(C(F)(F)F)c(-c2ncc(F)cn2)c1)N1C2CC3CC(C2)CC1C3 [Example 310, N-(3-(5-fluoropyrimidin-2-yl)-4-(trifluoromethyl)phenyl)-2-azaadamantane-2-carboxamide] | – | 0.7 µM | 0.0001 to 1 µM |
| Cc1ccc(NC(=O)C2CC3CCC2C3)cc1-c1ccccn1 (stereo not shown) [Example 147, N-(4-methyl-3-pyridin-2-ylphenyl)bicyclo[2.2.1]heptane-2-carboxamide] | – | 0.2 µM | 0.0001 to 1 µM |
| Cc1ccc(NC(=O)N2CCOCCC2C)cc1-c1ncc(F)cn1 (racemic) [Example 225, N-[3-(5-fluoropyrimidin-2-yl)-4-methylphenyl]-5-methyl-1,4-oxazepane-4-carboxamide] | > 10 µM | 32 µM | – |
| Cc1ccc(NC(=O)[C@H]2C[C@H]2c2ccccc2)cc1-c1cccnn1 [Example 298, (1S,2R)-N-(4-methyl-3-pyridazin-3-ylphenyl)-2-phenylcyclopropane-1-carboxamide] | – | 0.6 µM | 0.0001 to 1 µM |
| COc1cnnc(-c2cc(NC(=O)N3C4CCCC3C4)c(F)cc2C)c1 [Example 249, N-[2-fluoro-5-(5-methoxypyridazin-3-yl)-4-methylphenyl]-6-azabicyclo[3.1.1]heptane-6-carboxamide] | – | 0.9 µM | 0.0001 to 1 µM |
| O=C(Nc1ccc(Cl)c(-c2ccccn2)c1)N1C2CCCC1C2 [Example 20, N-(4-chloro-3-(pyridin-2-yl)phenyl)-6-azabicyclo[3.1.1]heptane-6-carboxamide] | – | 0.4 µM | 0.0001 to 1 µM |
| Cc1ccc(NC(=O)[C@H]2C[C@@H](OC(F)(F)F)C2)cc1-c1ccccn1 [Example 136, cis-N-(4-methyl-3-pyridin-2-ylphenyl)-3-(trifluoromethoxy)cyclobutane-1-carboxamide] | 1 to 10 µM | 6.4 µM | – |
| O=C(Nc1ccc(F)c(-c2ccc(F)cn2)c1)N1C2CCCC1C2 [Example 35, N-(4-fluoro-3-(5-fluoropyridin-2-yl)phenyl)-6-azabicyclo[3.1.1]heptane-6-carboxamide] | 1 to 10 µM | 3.5 µM | – |
| Cc1ccc(NC(=O)N2[C@@H]3C[C@@H](C)C[C@H]2C3)cc1-c1cc(OC(F)F)cnn1 [Example 235, cis-N-[3-[5-(difluoromethoxy)pyridazin-3-yl]-4-methylphenyl]-3-methyl-6-azabicyclo[3.1.1]heptane-6-carboxamide] | – | 0.06 µM | 0.0001 to 1 µM |
| O=C(Nc1ccc(OC(F)(F)F)c(-c2ccccn2)c1)N1C2CCCC1C2 [Example 59, N-(3-(pyridin-2-yl)-4-(trifluoromethoxy)phenyl)-6-azabicyclo[3.1.1]heptane-6-carboxamide] | – | 0.6 µM | 0.0001 to 1 µM |
| C[C@@H]1C[C@@H]2C[C@H](C1)N2C(=O)Nc1ccc(C#N)c(-c2ccccn2)c1 [Example 42, cis-N-(4-cyano-3-(pyridin-2-yl)phenyl)-3-methyl-6-azabicyclo[3.1.1]heptane-6-carboxamide] | – | 0.05 µM | 0.0001 to 1 µM |
| Cc1ccc(NC(=O)[C@H]2C[C@H]3C[C@H]3N2c2ncc(Cl)nn2)cc1-c1ncc(F)cn1 [Example 263, (1R,3R,5R)-2-(6-chloro-1,2,4-triazin-3-yl)-N-[3-(5-fluoropyrimidin-2-yl)-4-methylphenyl]-2-azabicyclo[3.1.0]hexane-3-carboxamide] | 1 to 10 µM | 1.8 µM | – |
| Cc1cnc(-c2cc(NC(=O)N3C4CCCC3C4)ccc2C)nn1 [Example 180, N-(4-methyl-3-(6-methyl-1,2,4-triazin-3-yl)phenyl)-6-azabicyclo[3.1.1]heptane-6-carboxamide] | – | 0.9 µM | 0.0001 to 1 µM |

Reference: patent publication US20250171462A1 (NICO Therapeutics, Inc., priority 2022, published 2025)
